From patent publication US4694018A, “Substituted 1,5-diphenyl-2-pyrrolepropionic acids and derivatives” (G. D. Serale & Co., priority 1985, dated 1987)

Experiments:
[1] = tested on: SRS synthesis by Rat Basophilic Leukemia Cell (RBL-1) cells; assay: Inhibition of slow reacting substance (SRS) biosynthesis in RBL-1 cells; format: cell-based; conditions: ionophore A23187, guinea pig ileum bioassay
Method: (2) Inhibition of slow reacting substance (SRS) biosynthesis in cells.
SRS synthesis by Rat Basophilic Leukemia Cell (RBL-1) cells is induced by incubation of cells with ionophore A23187 alone and in combination with the test compound. The SRS released into the culture media is measured. The percent inhibition of SRS production is estimated by determining the doses of treated and control media needed in the tissue bath to produce equivalent contractions of segments of isolated guinea pig ileum.
Initial screening doses of test compounds are 1×10^-4 M and 1×10^-5 M.

5-lipoxygenase = target: T1, 5-lipoxygenase (Rattus norvegicus, UniProt P12527); assay: Inhibition of 5-lipoxygenase, in vitro (5-HETE synthesis by RBL-1 homogenate 100,000×g supernatant); format: biochemical; conditions: RBL-1 homogenate supernatant, 5-HETE from [1-14C]-arachidonic acid with Ca++; read-out: Rat Basophilic Leukemia Cell- Inhibition IC50
T1 construct: supernatant fraction of Rat Basophilic Leukemia Cell Homogenate (RBL-1) serves as a 5-lipoxygenase enzyme source; endogenous in cells; host or cells: RBL-1 (rat basophilic leukemia cells), 100,000×g supernatant of homogenate
T1 sequence (P12527 1-673): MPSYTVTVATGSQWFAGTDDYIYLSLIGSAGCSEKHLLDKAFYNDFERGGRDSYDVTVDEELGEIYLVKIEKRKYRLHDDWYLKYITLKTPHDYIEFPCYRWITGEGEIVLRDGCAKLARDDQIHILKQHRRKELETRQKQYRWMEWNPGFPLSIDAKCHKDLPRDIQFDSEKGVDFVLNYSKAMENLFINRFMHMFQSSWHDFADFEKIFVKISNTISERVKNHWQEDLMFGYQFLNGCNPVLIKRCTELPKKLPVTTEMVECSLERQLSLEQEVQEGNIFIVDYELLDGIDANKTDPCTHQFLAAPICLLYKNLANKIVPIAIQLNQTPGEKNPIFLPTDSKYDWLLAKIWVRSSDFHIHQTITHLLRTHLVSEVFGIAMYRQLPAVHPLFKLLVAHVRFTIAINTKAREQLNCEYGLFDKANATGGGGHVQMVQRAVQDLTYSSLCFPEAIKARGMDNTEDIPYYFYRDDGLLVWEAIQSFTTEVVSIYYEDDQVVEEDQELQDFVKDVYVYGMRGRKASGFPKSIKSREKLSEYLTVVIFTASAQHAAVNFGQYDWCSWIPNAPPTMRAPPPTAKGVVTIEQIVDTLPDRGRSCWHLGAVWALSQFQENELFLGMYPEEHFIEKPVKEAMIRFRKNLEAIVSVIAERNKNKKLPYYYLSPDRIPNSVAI
Method: (1) Inhibition of 5-lipoxygenase, in vitro: anti-inflammatory, anti-allergyactivities.
The 100,000×g supernatant fraction of Rat Basophilic Leukemia Cell Homogenate (RBL-1) serves as a 5-lipoxygenase enzyme source. The enzyme is incubated with [1-^14 C]-arachidonic acid and Ca++ in the presence and absence of test compound. The product of 5-lipoxygenase, 5-hydroxyeicosatetraenoic acid (5-HETE), is separated by thin-layer chromatography and measured by radioactivity. A compound inhibiting 5-HETE synthesis by 30% or more is considered active at that concentration.

[2] = tested on: bronchoconstricting effects; conditions: versus histamine; cited from earlier work

Row | Compound | inhibition at 5 µM [1] [%] | IC50 (5-lipoxygenase) [µM] | potency relative to histamine in causing long lasting bronchoconstricting effects [2]
1 | O=C(O)CCc1ccc(-c2ccc(F)cc2)n1-c1cc(Cl)ccc1O [Example 1, 1-(5-chloro-2-hydroxyphenyl)-5-(4-fluorophenyl)-1H-pyrrole-2-propanoic acid] | 82 | 0.83 | –
2 | NC(=O)CCc1ccc(-c2ccc(F)cc2)n1-c1cc(Cl)ccc1O [Example 4, 1-(5-chloro-2-hydroxyphenyl)-5-(4-fluorophenyl)-1H-pyrrole-2-propanamide] | – | 2.4 | –
3 | O=C(O)CCc1ccc(-c2ccc(Cl)cc2)n1-c1cc(Cl)ccc1O [Example 5, 1-(5-chloro-2-hydroxyphenyl)-5-(4-chlorophenyl)-1H-pyrrole-2-propanoic acid] | – | 10 | –
4 | COc1ccc(-c2ccc(CCC(=O)O)n2-c2cc(Cl)ccc2O)cc1 [Example 7, 1-(5-chloro-2-hydroxyphenyl)-5-(4-methoxyphenyl)-1H-pyrrole-2-propanoic acid] | – | 35 | –
5 | CCCCC/C=C\C\C=C/C=C/C=C/[C@@H](SC[C@H](NC(=O)CC[C@H](N)C(=O)O)C(=O)NCC(=O)O)[C@@H](O)CCCC(=O)O [LTC4] | – | – | at least 100 times
